Activity calls are given as the source filed them. No cut-off for these calls is given here. Some results are limits rather than exact numbers.

Experimental findings from ChEMBL document CHEMBL4665653, “VU6005806/AZN-00016130, an advanced M positive allosteric modulator (PAM) profiled as a potential preclinical development candidate” (Bioorg Med Chem Lett, 2019) are described below.

The target of assay [1] is T1, Muscarinic acetylcholine receptor M4 (Homo sapiens, UniProt P08173).
T1 sequence (P08173 whole entry): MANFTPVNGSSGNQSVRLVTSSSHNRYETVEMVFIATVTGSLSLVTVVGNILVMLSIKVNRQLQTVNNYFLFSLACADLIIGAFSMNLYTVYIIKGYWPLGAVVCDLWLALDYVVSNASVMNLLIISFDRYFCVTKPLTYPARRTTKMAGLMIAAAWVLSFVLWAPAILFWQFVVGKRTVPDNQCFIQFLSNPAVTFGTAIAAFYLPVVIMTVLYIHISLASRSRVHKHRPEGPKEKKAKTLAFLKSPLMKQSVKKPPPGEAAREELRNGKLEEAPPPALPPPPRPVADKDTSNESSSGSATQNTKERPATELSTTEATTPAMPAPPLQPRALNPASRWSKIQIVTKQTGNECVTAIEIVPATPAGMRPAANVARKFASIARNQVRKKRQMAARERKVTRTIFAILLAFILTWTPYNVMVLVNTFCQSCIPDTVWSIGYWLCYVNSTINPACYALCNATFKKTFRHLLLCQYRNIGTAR
Put plainly: Positive allosteric modulation of human M4 receptor/Gqi5 in presence of EC20 acetylcholine by calcium mobilization assay. It counts as functional.

Assay [2] concerns the target T2, Muscarinic acetylcholine receptor M4 (Homo sapiens) (UniProt P08173).
T2 sequence (whole entry): T1 sequence (P08173 whole entry)
Put plainly: Positive allosteric modulation of human M4 receptor/Gqi5 in presence of EC20 acetylcholine by calcium mobilization assay relative to acetylcholine. It counts as functional. The note with it: filed as positive allosteric modulator.

In assay [3] the target is T3, Muscarinic acetylcholine receptor M2 (Homo sapiens, UniProt P08172).
T3 sequence (P08172 whole entry): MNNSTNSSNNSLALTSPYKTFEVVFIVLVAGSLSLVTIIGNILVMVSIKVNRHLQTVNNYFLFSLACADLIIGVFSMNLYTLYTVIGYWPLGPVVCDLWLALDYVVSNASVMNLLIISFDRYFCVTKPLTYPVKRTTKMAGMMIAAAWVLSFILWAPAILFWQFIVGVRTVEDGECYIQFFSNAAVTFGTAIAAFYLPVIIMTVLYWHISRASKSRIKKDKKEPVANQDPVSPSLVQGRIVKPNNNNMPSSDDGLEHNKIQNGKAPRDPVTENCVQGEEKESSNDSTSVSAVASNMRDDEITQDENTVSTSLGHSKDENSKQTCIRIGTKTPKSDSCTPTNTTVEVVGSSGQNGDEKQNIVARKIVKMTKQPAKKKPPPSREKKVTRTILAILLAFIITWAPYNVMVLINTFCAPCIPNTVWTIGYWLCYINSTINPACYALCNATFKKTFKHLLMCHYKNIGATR
Put plainly: Positive allosteric modulation of human M2 receptor/Gqi5 in presence of EC20 acetylcholine by calcium mobilization assay.

The target of assay [4] is T4, Muscarinic acetylcholine receptor M1 (Homo sapiens) (UniProt P11229).
T4 sequence (whole entry): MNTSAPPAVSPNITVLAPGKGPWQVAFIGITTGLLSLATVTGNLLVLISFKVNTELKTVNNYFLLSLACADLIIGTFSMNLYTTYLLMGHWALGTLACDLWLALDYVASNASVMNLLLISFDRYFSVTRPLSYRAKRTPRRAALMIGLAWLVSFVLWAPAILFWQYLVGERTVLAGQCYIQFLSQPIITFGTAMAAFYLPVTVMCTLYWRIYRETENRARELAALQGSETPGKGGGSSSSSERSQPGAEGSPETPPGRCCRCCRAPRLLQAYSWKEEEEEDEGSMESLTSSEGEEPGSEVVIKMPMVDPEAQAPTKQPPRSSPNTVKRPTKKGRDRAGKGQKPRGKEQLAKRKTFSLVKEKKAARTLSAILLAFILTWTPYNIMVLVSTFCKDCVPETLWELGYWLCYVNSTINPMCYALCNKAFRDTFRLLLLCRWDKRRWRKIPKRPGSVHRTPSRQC
The experiment in a line: Positive allosteric modulation of human M1 receptor.

Assay [5] addresses Muscarinic acetylcholine receptor M3 (Homo sapiens, UniProt P20309). The experiment in a line: Positive allosteric modulation of human M3 receptor.
Assay [6] deals with T5, Muscarinic acetylcholine receptor M5 (Homo sapiens) (UniProt P08912).
T5 sequence (whole entry): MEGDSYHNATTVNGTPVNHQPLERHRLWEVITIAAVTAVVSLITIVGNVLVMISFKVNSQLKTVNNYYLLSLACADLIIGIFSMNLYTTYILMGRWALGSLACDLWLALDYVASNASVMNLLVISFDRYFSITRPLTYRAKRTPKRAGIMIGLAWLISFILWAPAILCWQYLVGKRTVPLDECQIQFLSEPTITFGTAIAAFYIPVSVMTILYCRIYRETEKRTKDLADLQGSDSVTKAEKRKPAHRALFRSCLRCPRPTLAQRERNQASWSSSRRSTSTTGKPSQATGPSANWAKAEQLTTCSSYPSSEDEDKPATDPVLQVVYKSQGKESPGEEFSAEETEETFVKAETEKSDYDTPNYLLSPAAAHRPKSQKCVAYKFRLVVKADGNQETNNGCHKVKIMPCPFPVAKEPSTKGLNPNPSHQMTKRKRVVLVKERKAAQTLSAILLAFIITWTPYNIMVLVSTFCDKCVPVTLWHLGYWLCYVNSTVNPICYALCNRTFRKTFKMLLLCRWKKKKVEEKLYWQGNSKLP
Put plainly: Positive allosteric modulation of human M5 receptor.

Muscarinic acetylcholine receptor M3, sequence (P20309 whole entry, looked up): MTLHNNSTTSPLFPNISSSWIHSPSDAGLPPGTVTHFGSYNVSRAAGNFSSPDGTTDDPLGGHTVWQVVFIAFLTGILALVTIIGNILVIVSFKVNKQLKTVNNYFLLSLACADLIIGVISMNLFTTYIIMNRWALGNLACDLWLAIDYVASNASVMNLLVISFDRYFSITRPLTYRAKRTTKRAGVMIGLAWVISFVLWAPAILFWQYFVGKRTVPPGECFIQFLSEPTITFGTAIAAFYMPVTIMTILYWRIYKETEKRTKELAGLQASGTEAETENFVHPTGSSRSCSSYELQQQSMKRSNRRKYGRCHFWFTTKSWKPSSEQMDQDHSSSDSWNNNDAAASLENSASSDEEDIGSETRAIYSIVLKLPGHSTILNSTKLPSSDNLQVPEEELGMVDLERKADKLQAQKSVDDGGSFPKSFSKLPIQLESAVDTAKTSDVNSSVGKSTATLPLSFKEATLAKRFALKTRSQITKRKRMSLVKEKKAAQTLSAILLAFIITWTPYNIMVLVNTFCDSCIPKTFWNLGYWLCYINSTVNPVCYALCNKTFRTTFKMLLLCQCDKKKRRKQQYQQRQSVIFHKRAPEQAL

With `Cc1cnnc2sc(C(=O)NC3Cc4ccccc4C3)c(N)c12`, the EC50 in assay [1] was determined as 60 nM. For the same molecule, in assay [2], the %max worked out at 81%.

As to `Cc1c(Cl)nnc2sc(C(=O)NC3CN(c4cc(Cl)ncc4Cl)C3)c(N)c12`, the concentration for a half-maximal effect (EC50) in assay [1] is 30 nM; in assay [3], over 30000 nM. Further, the %max in assay [2] is 59%. Besides, the outcome in assay [4], in assay [5] and in assay [6] was inactive.

In the case of `Cc1c(Cl)nnc2sc(C(=O)NC3Cc4ccccc4C3)c(N)c12`, the EC50 in assay [1] is 10 nM. In assay [2], the %max was determined as 73%.

Consider `COc1nnc2sc(C(=O)NC3Cc4ccccc4C3)c(N)c2c1C`, for which, in assay [1], the EC50 was 20 nM. In assay [2], the %max stood at 83%.

In the case of `Cc1c(C(C)C)nnc2sc(C(=O)NC3CN(c4ncc(C(F)(F)F)cn4)C3)c(N)c12`, the results for the EC50 in assay [1] and in assay [3] were 540 nM and over 30000 nM, respectively. Besides, the %max in assay [2] came to 56%. The outcome in assay [4], in assay [5] and in assay [6] was inactive.

On to `CCc1nnc2sc(C(=O)NC3CN(c4ncc(C(F)(F)F)cn4)C3)c(N)c2c1C`, for which the values for the EC50 in assay [1] and in assay [3] were 510 nM and over 30000 nM, respectively. Moreover, the %max in assay [2] was 77%. Besides, the outcome in assay [4], in assay [5] and in assay [6] was inactive.

On to `Cc1c(CN(C)C)nnc2sc(C(=O)NC3CN(c4ncc(C(F)(F)F)cn4)C3)c(N)c12`, for which the EC50 in assay [1] and in assay [3] was over 30000 nM throughout. The result in assay [4], in assay [5] and in assay [6] was inactive.

On to `Cc1c(Cl)nnc2sc(C(=O)NC3CN(c4ncncc4C#N)C3)c(N)c12`, for which the EC50 in assay [1] is 220 nM; in assay [3], over 30000 nM. Besides, the %max in assay [2] was 65%. The outcome in assay [4], in assay [5] and in assay [6] was inactive.

Turning to `Cc1c(Cl)nnc2sc(C(=O)NC3CN(c4ccnc(F)c4Cl)C3)c(N)c12`, the EC50 in assay [1] is 70 nM; in assay [3], over 30000 nM. For the same molecule, the %max in assay [2] stood at 72%. Also, the result in assay [4], in assay [5] and in assay [6] was inactive.

Take `Cc1nc(Cl)c(C)c(N2CC(NC(=O)c3sc4nnc(Cl)c(C)c4c3N)C2)n1`: the EC50 in assay [1] was 100 nM; in assay [3], over 30000 nM. In assay [2], the %max is 84%. Further, the outcome in assay [4], in assay [5] and in assay [6] was inactive.

In the case of `Cc1nnc2sc(C(=O)NC3Cc4ccccc4C3)c(N)c2c1C`, in assay [1], the EC50 is 20 nM. In addition, the %max in assay [2] is 79%.

In the case of `Cc1c(O)nnc2sc(C(=O)NC3Cc4ccccc4C3)c(N)c12`, the EC50 in assay [1] stood at 290 nM. Besides, the %max in assay [2] stood at 71%.

Consider `COCCOc1nnc2sc(C(=O)NC3CN(c4ncc(C(F)(F)F)cn4)C3)c(N)c2c1C`, for which the EC50 in assay [1] is 180 nM; in assay [3], over 30000 nM. In assay [2], the %max was 48%. In addition, the outcome in assay [4], in assay [5] and in assay [6] was inactive.

Turning to `Cc1c(O)nnc2sc(C(=O)NC3CN(c4ncc(C(F)(F)F)cn4)C3)c(N)c12`, the EC50 in assay [1] was 6720 nM; in assay [3], over 30000 nM. For the same molecule, the %max in assay [2] is 45%. In addition, the outcome in assay [4], in assay [5] and in assay [6] was inactive.

Turning to `Cc1c(CO)nnc2sc(C(=O)NC3CN(c4ncc(C(F)(F)F)cn4)C3)c(N)c12`, the EC50 in assay [1] is 1170 nM; in assay [3], over 30000 nM. The %max in assay [2] is 75%. In addition, the outcome in assay [4], in assay [5] and in assay [6] was inactive.
